Several values for one entry are separate records, joined by “and”; a condition that tells them apart may be missing. Equal values may be shown once.
Legend:
PK40 = assay: 32P kinase assay, ATP dependence and inhibition of PK40 activity with dephosphorylated NF-M as substrate; format: biochemical, bovine; conditions: for relative activity [%] of PK40: % of control
Protocol: (§1) An alternative method for assaying the phosphorylating activity of the kinases was by ^32P assays. Radioactive assays in the same buffer system as for immunoassays contained 5 µg of HTP-purified native NF-triplet as substrate (3µg of substrate proteins other than NFs) and 150-250 cpm/pmole gamma-^32P-ATP. Incubation times were 15 minutes at 37°C for activities up to about 1 pmole/min/assay, since the assay responses were linear within these time intervals. Assays were stopped by cooling on ice, addition of 20 µl 25 mM EDTA and immediate transfer of the mixture onto glass filters (Whatman GF/A) wetted with 10% TCA/2% sodium pyrophosphate (PPA). The glass filters were washed twice for 1 hour and once for at least 3 hours in 10% TCA/2% PPA and finally in ethanol and were air-dried. Radioactivity was assessed by scintillation counting (Beckman LS 230) with 5 ml "Liquiscint" (National Diagnostics) for 20 minutes. Assays were routinely carried out in triplicate except for some duplicate assays in a few explicitly mentioned cases; a control assay lacking NFs was subtracted from the mean value.
The ATP dependence and inhibition of the activities of PK40 and PK36 were determined at 2 mM Mg^2+ with soluble dephosphorylated NF-M as second substrate to avoid uncertainties arising from the aggregation state of NF-triplet in suspension. The optima were at 0.5 - 1 mM ATP for both kinases. Apparent Km values for ATP of both kinases were estimated from Woolf-Hanes plots (Dixon and Webb, 1979) for a range of ATP concentrations sufficiently below the onset of inhibition. […] The apparent Km of PK36 was approximately 50 µM.

PK36 = assay: 32P kinase assay, ATP dependence and inhibition of PK36 activity with dephosphorylated NF-M as substrate; format: biochemical, bovine; conditions: % of control
Protocol: as §1, with “Incubation times were 15 minutes at 37°C for activities up to about 1 pmole/min/assay, since the assay responses were linear within these time intervals. Assays were stopped by cooling on ice, addition of 20 µl 25 mM EDTA and immediate transfer of the mixture onto glass filters (Whatman GF/A) wetted with 10% TCA/2% sodium pyrophosphate (PPA).” left out

[1] = molecular target: KSP-phosphorylating kinases; assay: Immuno-dotblot assay (SMI-31/SMI-34) of crude enzyme with dephosphorylated NF-triplet; format: biochemical, bovine; conditions: ATP [5mM]
Protocol: The preferred method for the immunoassay for detecting KSP-phosphorylating kinases is as follows. Dephosphorylated NF-triplet protein was incubated with the 35-45% ammonium sulfate fraction of the brain supernatant (see section B.). Immuno-dotblot assays were performed in 50 mM HEPES, pH 7.0, 2 mM MgCl2, […], 2 mM DTT in a total volume of 30 µl with 5 µg of dephosphorylated native NF-triplet or 1.2 µg of dephosphorylated pure subunits NF-M or NF-H as substrates together with a control assay lacking NFs. After incubation at 37°C for 18 hours, assays were diluted to 100 µl with 10 mM PBS, pH 7.2, and aliquots of 50 µl were spotted on nitrocellulose (0.22µm, Schleicher and Schüll). Blots were blocked by 1 hour incubation with 3% BSA in 10mM PBS, pH 7.2, and washed once in 0.5% Triton-X100/10 mM PBS. Antibodies were diluted in sterile 10 mM PBS, pH 7.2, 0.5% Triton-X100, 10% fetal calf serum. Blots were incubated with SMI mAbs for at least 2 hours. The blots were then washed five times. Mouse mAbs were detected by reaction with horseradish-peroxidase-linked goat-anti-mouse antibody (Cappel Co.) in 1:200 dilution and by staining with 0.05% 4-chloro-1-naphthol (Sigma) and 0.05% H2O2 in 50 mM TBS, pH 7.5, 33% ethanol for 5-20 minutes. All incubations and washes were at room temperature. Incubations were sealed in plastic bags with 50 µl of solution/cm^2 membrane. […]

[2] = molecular target: kinase PK40 (bovine brain) (bovine); assay: cell-based or functional assay

[Cl-].[Na+] [NaCl, sodium chloride]
relative activity [%] of PK40 (PK40; NaCl 150mM, 15 min, 150000 µM): 27% and 27±1.8%
relative activity [%] of PK36 (PK36; NaCl 150mM, 15 min, 150000 µM): 40% and 40±0.8%

ATP
kinase activity (reconstitution of SMI-31 and SMI-34 epitopes) [1]: inhibited
relative activity [%] of PK40 (PK40; 5mM Mg^2, 5mM ATP): 78±7.1%
inhibition of PK40 by an excess of ATP (PK40; ATP in relatively small excess over Mg^2+): strongly inhibited
Km (PK40; PK40, 2 mM Mg^2+, Woolf-Hanes plots, mean ± S.D. of three determinations at three NF-M concentrations, read-out: apparent Km value for ATP): 93 ± 12 µM
relative activity [%] of PK36 (PK36; 5mM Mg^2, 5mM ATP): 38±2.2%

Walsh inhibitor
relative activity [%] at Walsh Inhibitor 1.5 [M, as printed] (% of the control) [2]: 107
relative activity [%] at Walsh Inhibitor 4.5 [M, as printed] (% of the control) [2]: 102
relative activity [%] at Walsh Inhibitor 45 [M, as printed] (% of the control) [2]: 101

Source: patent EP1026237B1, “Use of an inhibitor of Tau/neurofilament protein kinase PK40” (Massachusetts Institute Of Technology, priority 1991, dated 1993)
